The target of one assay is WDR5 protein (Homo sapiens (Human), UniProt P61964). Briefly: Surface Plasmon Resonance (SPR) assay. It is filed as binding. The settings on record: SPR; for residence time: τ=1/koff, read-out: Residence Time (t, min).
Another assay deals with MLL1-WRAD2 complex (Homo sapiens (Human), UniProt P61964). As to the kind of experiment: MLL1-WRAD2 enzyme assay (in vitro methyl transferase assay). It is filed as biochemical. As to conditions: MLL1-WRAD2 assay; read-out: In vitro MLL1 activity (IC50). As to the method:
Reaction was initiated with 1 μM 3H-SAM and incubated for 1 hour at 30° C. Reaction mixture was transferred to P81 filter-paper and washed with PBS before detection.

Setting [1] is: Table 1, read-out: WDR5 binding affinity (KD).
[2] abbreviates: Table 2, read-out: WDR5 binding affinity SPR (KD).

Broadly, the Kd is the free concentration of one partner at which half of the binding sites on the other are occupied at equilibrium, for simple one-to-one binding. As usually defined, the residence time is how long the partners stay bound on average. As a reminder, the IC50 is the point on the concentration scale where inhibition reaches its midpoint.

Where two headings read alike, the source gives them in different places.

Procedure for WDR5 protein: Exemplary compounds of the application were dissolved in 100% DMSO at 10 mM, assayed fresh, and then stored at −20° C. for repeat studies and other experiments. Full length WDR5 with an N-terminal His tag and C-terminal AviTag (Avidity Inc.) was expressed in E. coli with coexpression of BirA to biotin label the protein in vivo. Purification was via Ni-NTA. The purified WDR5 protein has a molecular weight of 41976 Da.
SPR studies were performed using a Biacore™ T200 instrument (GE Health Sciences Inc.). Biotinylated WDR5 protein (approximately 3000RU) was stably captured to streptavidin coupled SA chips according to the manufacture's protocol (GE Health Sciences Inc.). The running buffer used was HBS-EP (20 mM Hepes pH 7.4, 150 mM NaCl, 3 mM EDTA, 0.05% P-20) plus 5% DMSO with a flow rate of 40p1/min. For SPR analysis, 5 different concentrations of each exemplary compound of the application were sprayed into 96 or 384 well plates using an HP D300 digital dispenser. […] Curve fitting and KD calculations were performed with the Biacore T200 Evaluation software (GE Health Sciences Inc).

As to `Cc1cc(=O)[nH]cc1C(=O)Nc1cc(-c2cc(CN3CCOCC3)ccc2F)ccc1N1CCN(C)CC1` [Example 29, N-(2′-fluoro-4-(4-methylpiperazin-1-yl)-5′-(morpholinomethyl)-[1,1′-biphenyl]-3-yl)-4-methyl-6-oxo-1,6-dihydropyridine-3-carboxamide], the Kd at WDR5 protein (setting [1]) and on WDR5 protein (setting [2]) was 262 nM each time. For the same molecule, the residence time at WDR5 protein amounted to 0.42 min. Further, on MLL1-WRAD2 complex, the IC50 amounted to 26.7 µM.

Regarding `CN1CCN(c2ccc(-c3ccc(CNC4CCCC4)cc3F)cc2NC(=O)c2c[nH]c(=O)cc2C(F)(F)F)CC1` [Example 33, N-(4′-((cyclopentylamino)methyl)-2′-fluoro-4-(4-methylpiperazin-1-yl)-[1,1′-biphenyl]-3-yl)-6-oxo-4-(trifluoromethyl)-1,6-dihydropyridine-3-carboxamide], the Kd on WDR5 protein (setting [1]) and at WDR5 protein (setting [2]) was 23 nM throughout. Also, the residence time on WDR5 protein was found to be 1.37 min. The IC50 at MLL1-WRAD2 complex turned out to be 8.45 µM.

On to `CN1CCN(c2ccc(-c3ccc(CNC4CCCCC4)cc3F)cc2NC(=O)c2c[nH]c(=O)cc2C(F)(F)F)CC1` [Example 34, N-(4′-((cyclohexylamino)methyl)-2′-fluoro-4-(4-methylpiperazin-1-yl)-[1,1′-biphenyl]-3-yl)-6-oxo-4-(trifluoromethyl)-1,6-dihydropyridine-3-carboxamide], for which the Kd at WDR5 protein (setting [1]) and at WDR5 protein (setting [2]) was 21 nM in each case. The residence time at WDR5 protein worked out at 0.26 min. Also, at MLL1-WRAD2 complex, the IC50 was 13.7 µM.

On to `CN1CCN(c2ccc(-c3cc(CNC(C)(C)C)ccc3F)cc2NC(=O)c2c[nH]c(=O)cc2C(F)(F)F)CC1` [Example 35, N-(5′-((tert-butylamino)methyl)-2′-fluoro-4-(4-methylpiperazin-1-yl)-[1,1′-biphenyl]-3-yl)-6-oxo-4-(trifluoromethyl)-1,6-dihydropyridine-3-carboxamide], for which the Kd at WDR5 protein (setting [1]) and at WDR5 protein (setting [2]) was 9 nM throughout. Besides, the residence time at WDR5 protein was determined as 4.59 min. The IC50 on MLL1-WRAD2 complex amounted to 2.39 µM.

As for `Cc1cc(C(=O)Nc2cc(-c3cc(CN4CCOCC4)ccc3F)ccc2N2CCN(C)CC2)ccc1F` [Example 36, 4-fluoro-N-(2′-fluoro-4-(4-methylpiperazin-1-yl)-5′-(morpholinomethyl)-[1,1′-biphenyl]-3-yl)-3-methylbenzamide], the Kd at WDR5 protein (setting [1]) and on WDR5 protein (setting [2]) was 4 nM each time. Besides, the residence time on WDR5 protein is 0.12 min. On MLL1-WRAD2 complex, the IC50 was more than 30 µM.

Take `CN(C)Cc1ccc(F)c(-c2ccc(N3CCN(C)CC3)c(NC(=O)c3c[nH]c(=O)cc3C(F)(F)F)c2)c1` [Example 40, N-(5′-((dimethylamino)methyl)-2′-fluoro-4-(4-methylpiperazin-1-yl)-[1,1′-biphenyl]-3-yl)-6-oxo-4-(trifluoromethyl)-1,6-dihydropyridine-3-carboxamide]: the Kd at WDR5 protein (setting [1]) and at WDR5 protein (setting [2]) was 9 nM in each case. Further, on WDR5 protein, the residence time turned out to be 2.52 min. Moreover, the IC50 at MLL1-WRAD2 complex turned out to be 6.29 µM.

In the case of `Cc1cc(C(=O)Nc2cc(-c3cc(CN4CCOCC4)ccc3F)ccc2N2CCN(C)CC2)cc(C(F)(F)F)c1F` [Example 41, 4-fluoro-N-(2′-fluoro-4-(4-methylpiperazin-1-yl)-5′-(morpholinomethyl)-[1,1′-biphenyl]-3-yl)-3-methyl-5-(trifluoromethyl)benzamide], the Kd on WDR5 protein (setting [1]) and on WDR5 protein (setting [2]) was 55 nM each time. For the same molecule, the residence time at WDR5 protein came to 0.77 min. Moreover, on MLL1-WRAD2 complex, the IC50 is more than 30 µM.

For `CN1CCN(c2ccc(-c3cc(CNC4CCC(F)(F)CC4)ccc3F)cc2NC(=O)c2c[nH]c(=O)cc2C(F)(F)F)CC1` [Example 42, N-(5′-(((4,4-difluorocyclohexyl)amino)methyl)-2′-fluoro-4-(4-methylpiperazin-1-yl)-[1,1′-biphenyl]-3-yl)-6-oxo-4-(trifluoromethyl)-1,6-dihydropyridine-3-carboxamide], the equilibrium dissociation constant (Kd) on WDR5 protein (setting [1]) and at WDR5 protein (setting [2]) was 5 nM in each case. Further, at WDR5 protein, the residence time is 4.43 min. For the same molecule, the IC50 on MLL1-WRAD2 complex came to 2.28 µM.

As to `CN1CCN(c2ccc(-c3cc(CN(C)C4COC4)ccc3F)cc2NC(=O)c2c[nH]c(=O)cc2C(F)(F)F)CC1` [Example 43, N-(2′-fluoro-5′-((methyl(oxetan-3-yl)amino)methyl)-4-(4-methylpiperazin-1-yl)-[1,1′-biphenyl]-3-yl)-6-oxo-4-(trifluoromethyl)-1,6-dihydropyridine-3-carboxamide], the dissociation constant Kd at WDR5 protein (setting [1]) and at WDR5 protein (setting [2]) was 7 nM in each case. Moreover, the residence time on WDR5 protein is 3.64 min. For the same molecule, the IC50 at MLL1-WRAD2 complex was found to be 3.25 µM.

Take `CN1CCN(c2ccc(-c3cc(CN4CCOCC4)ccc3F)cc2NC(=O)c2ccc(O)cc2C(F)(F)F)CC1` [Example 44, N-(2′-fluoro-4-(4-methylpiperazin-1-yl)-5′-(morpholinomethyl)-[1,1′-biphenyl]-3-yl)-4-hydroxy-2-(trifluoromethyl)benzamide]: the dissociation constant Kd at WDR5 protein (setting [1]) and at WDR5 protein (setting [2]) was 69 nM in each case. In addition, on WDR5 protein, the residence time stood at 0.23 min. Moreover, on MLL1-WRAD2 complex, the IC50 is more than 30 µM.

For `CN1CCN(c2ccc(-c3cc(CN4CCOCC4)ccc3F)cc2NC(=O)c2cc(O)cc(F)c2F)CC1` [Example 48, 2,3-difluoro-N-(2′-fluoro-4-(4-methylpiperazin-1-yl)-5′-(morpholinomethyl)-[1,1′-biphenyl]-3-yl)-5-hydroxybenzamide], the Kd on WDR5 protein (setting [1]) and at WDR5 protein (setting [2]) was 93 nM throughout. Moreover, at WDR5 protein, the residence time was 0.61 min. Moreover, at MLL1-WRAD2 complex, the IC50 is 21.3 µM.

On to `C[C@@H]1CN(c2ccc(-c3cc(CN4CCOCC4)cnc3F)cc2NC(=O)c2c[nH]c(=O)cc2C(F)(F)F)C[C@H](C)N1C` [Example 60, N-(5-(2-fluoro-5-(morpholinomethyl)pyridin-3-yl)-2-((3S,5R)-3,4,5-trimethylpiperazin-1-yl)phenyl)-6-oxo-4-(trifluoromethyl)-1,6-dihydropyridine-3-carboxamide], for which the Kd at WDR5 protein (setting [1]) and on WDR5 protein (setting [2]) was 7 nM each time. Further, the residence time on WDR5 protein turned out to be 9.5 min. Moreover, the IC50 at MLL1-WRAD2 complex worked out at 1.41 µM.

With `CN1CCN(c2ccc(-c3cc(CN4CCOCC4)cnc3F)cc2NC(=O)c2c[nH]c(=O)cc2C(F)(F)F)CC1` [Example 61, N-(5-(2-fluoro-5-(morpholinomethyl)pyridin-3-yl)-2-(4-methylpiperazin-1-yl)phenyl)-6-oxo-4-(trifluoromethyl)-1,6-dihydropyridine-3-carboxamide], the Kd at WDR5 protein (setting [1]) and at WDR5 protein (setting [2]) was 7 nM throughout. Further, the residence time on WDR5 protein came out at 2.29 min. The IC50 on MLL1-WRAD2 complex was determined as 4.49 µM.

As to `CCN1CCN(c2ccc(-c3cc(CN4CCOCC4)ccc3F)cc2NC(=O)c2c[nH]c(=O)cc2C(F)(F)F)CC1` [Example 62, N-(4-(4-ethylpiperazin-1-yl)-2′-fluoro-5′-(morpholinomethyl)-[1,1′-biphenyl]-3-yl)-6-oxo-4-(trifluoromethyl)-1,6-dihydropyridine-3-carboxamide], the Kd on WDR5 protein (setting [1]) and on WDR5 protein (setting [2]) was more than 200 nM in each case. Moreover, the IC50 on MLL1-WRAD2 complex is 13.5 µM.

Regarding `CN1CCN(c2ccc(-c3cc(CN4CCOCC4)ccc3F)cc2NC(=O)c2c[nH]c(=O)cc2C(F)(F)F)CC1CO` (centres unmarked) [Example 65, N-(2′-fluoro-4-(3-(hydroxymethyl)-4-methylpiperazin-1-yl)-5′-(morpholinomethyl)-[1,1′-biphenyl]-3-yl)-6-oxo-4-(trifluoromethyl)-1,6-dihydropyridine-3-carboxamide], the Kd on WDR5 protein (setting [1]) and on WDR5 protein (setting [2]) was 9.4 nM in each case. Besides, at WDR5 protein, the residence time came out at 9.93 min. In addition, the IC50 on MLL1-WRAD2 complex amounted to 7.3 µM.

As to `CN1CCN(c2ncc(-c3cc(CN4CCOCC4)ccc3F)cc2NC(=O)c2c[nH]c(=O)cc2C(F)(F)F)CC1` [Example 84, N-(5-(2-fluoro-5-(morpholinomethyl)phenyl)-2-(4-methylpiperazin-1-yl)pyridin-3-yl)-6-oxo-4-(trifluoromethyl)-1,6-dihydropyridine-3-carboxamide], the Kd at WDR5 protein (setting [1]) and at WDR5 protein (setting [2]) was 22 nM in each case. For the same molecule, at MLL1-WRAD2 complex, the IC50 is more than 30 µM.

Take `CNC(=O)c1ccc(F)c(-c2ccc(N3C[C@@H](C)N(C)[C@@H](C)C3)c(NC(=O)c3c[nH]c(=O)cc3C(F)(F)F)c2)c1` [Example 90, N-(2′-fluoro-5′-(methylcarbamoyl)-4-((3S,5R)-3,4,5-trimethylpiperazin-1-yl)-[1,1′-biphenyl]-3-yl)-6-oxo-4-(trifluoromethyl)-1,6-dihydropyridine-3-carboxamide]: the Kd at WDR5 protein (setting [1]) stood at 6.5 nM; on WDR5 protein (setting [2]), 6.4 nM. Moreover, the residence time at WDR5 protein came to 3 min. Further, the IC50 on MLL1-WRAD2 complex turned out to be 1.09 µM.

Consider `C[C@@H]1CN(c2ccc(-c3cc(C(=O)NC4CC4)ccc3F)cc2NC(=O)c2c[nH]c(=O)cc2C(F)(F)F)C[C@H](C)N1C` [Example 93, N-(5′-(cyclopropylcarbamoyl)-2′-fluoro-4-((3S,5R)-3,4,5-trimethylpiperazin-1-yl)-[1,1′-biphenyl]-3-yl)-6-oxo-4-(trifluoromethyl)-1,6-dihydropyridine-3-carboxamide], for which the Kd on WDR5 protein (setting [1]) turned out to be 3.1 nM; at WDR5 protein (setting [2]) it was 3 nM. Besides, the residence time on WDR5 protein stood at 9.6 min. Also, the IC50 on MLL1-WRAD2 complex came out at 0.197 µM.

Regarding `C[C@H]1CN(c2ccc(-c3ncccc3F)cc2NC(=O)c2c[nH]c(=O)cc2C(F)(F)F)CCN1C` [Example 96, (S)—N-(2-(3,4-dimethylpiperazin-1-yl)-5-(3-fluoropyridin-2-yl)phenyl)-6-oxo-4-(trifluoromethyl)-1,6-dihydropyridine-3-carboxamide], the results for the Kd at WDR5 protein (setting [1]) and on WDR5 protein (setting [2]) were 2.6 nM and 3 nM, respectively. Further, the IC50 at MLL1-WRAD2 complex was 2.53 µM.

Regarding `CN1CCN(c2ccc(-c3cc(CN4CCOCC4)ccc3F)c(F)c2NC(=O)c2c[nH]c(=O)cc2C(F)(F)F)CC1` [Example 99, N-(2,2′-difluoro-4-(4-methylpiperazin-1-yl)-5′-(morpholinomethyl)-[1,1′-biphenyl]-3-yl)-6-oxo-4-(trifluoromethyl)-1,6-dihydropyridine-3-carboxamide], the dissociation constant Kd on WDR5 protein (setting [1]) and at WDR5 protein (setting [2]) was 14 nM each time. Besides, the residence time at WDR5 protein was 2.2 min. Further, the IC50 on MLL1-WRAD2 complex was found to be 3.98 µM.
